In patent US6890942B2, “Acyl sulfonamides as inhibitors of HIV integrase” (Bristol-Myers Squibb Company, priority 2003, dated 2005) one finds inhibition and melting point data, which are given here for 30 molecules.

One series deals with T1, HIV-integrase (Human immunodeficiency virus type 1 group M subtype B, UniProt P04585).
T1 construct: 0.26 ng of recombinant integrase was incubated with the beads
Nature of the series: HIV-Integrase Inhibition Activity (SPA bead strand-transfer assay). Conditions: 10 μM compound; recombinant integrase. The series is classed as biochemical. The procedure:
For each reaction, 5 pmole of biotin labeled substrate DNA was bound to 100 ug of Streptavidin coated PVT SPA beads (Amersham Pharmacia Biotech). 0.26 ng of recombinant integrase was incubated with the beads for 90 min at 37 C. Unbound enzyme was removed by washing the complex followed by addition of inhibitors and 0.1 fmol of P33 labeled target DNA. Reaction was stopped by adding EDTA to a final concentration of 10 mM. Samples were counted in TopCountNXT (Packard) and the CPM was used as a measure of integration. Reaction condition was as described in A. Engelman and R. Craigie, J. Virol. 69, 5908-5911 (1995). The sequences of substrate and target DNA were described in Nucleic Acid Research 22, 1121-1122 (1994). Compounds of this invention tested in this assay have IC50's of approximately 0.01 to 25 μM.

By inhibition is commonly meant the drop in the measured response relative to a control, in per cent. On to `CON(Cc1ccc(F)cc1)C(=O)/C=C(\O)C(=O)NS(=O)(=O)c1ccc(C)cc1` [Example 1, 3-Hydroxy-4-oxo-4-(toluene-4-sulfonylamino)-but-2-enoic acid (4-fluoro-benzyl)-methoxy-amide], for which, on HIV-integrase, the inhibition at 10 µM was determined as 99%.

The melting point is the temperature, or range, at which the solid turns liquid. With `CON(Cc1ccc(F)cc1)C(=O)/C=C(\O)C(=O)NS(C)(=O)=O` [Example 2, 3-Hydroxy-4-methanesulfonylamino-4-oxo-but-2-enoic acid (4-fluoro-benzyl)-methoxy-amide], the melting point was 137 °C (dec.). Further, the inhibition at 10 µM at HIV-integrase was found to be 99%.

As to `CON(Cc1ccc(F)cc1)C(=O)/C=C(\O)C(=O)NS(=O)(=O)c1nnc(NC(C)=O)s1` [Example 3, 4-(5-Acetylamino-[1,3,4]thiadiazole-2-sulfonylamino)-3-hydroxy-4-oxo-but-2-enoic acid (4-fluoro-benzyl)-methoxy-amide], the inhibition at 10 µM at HIV-integrase is 99%.

As for `CON(Cc1ccc(F)cc1)C(=O)/C=C(\O)C(=O)NS(=O)(=O)CC1CCC1` [Example 4, 4-Cyclobutylmethanesulfonylamino-3-hydroxy4-oxo-but-2-enoic acid (4-fluoro-benzyl)-methoxy-amide], the inhibition at 10 µM at HIV-integrase stood at 99%.

`CON(Cc1ccc(F)cc1)C(=O)/C=C(\O)C(=O)NS(=O)(=O)C1CCCCC1` [Example 5, 4-Cyclohexanesulfonylamino-3-hydroxy-4-oxo-but-2-enoic acid (4-fluoro-benzyl)-methoxy-amide]: the inhibition at 10 µM on HIV-integrase came to 99%.

Take `CON(Cc1ccc(F)cc1)C(=O)/C=C(\O)C(=O)NS(=O)(=O)C1CCCC1` [Example 6, 4-Cyclopentanesulfonylamino-3-hydroxy-4-oxo-but-2-enoic acid (4-fluoro-benzyl)-methoxy-amide]: the inhibition at 10 µM at HIV-integrase was determined as 99%.

With `CON(Cc1ccc(F)cc1)C(=O)/C=C(\O)C(=O)NS(=O)(=O)C1CC1` [Example 7, 4-Cyclopropanesulfonylamino-3-hydroxy-4-oxo-but-2-enoic acid (4-fluoro-benzyl)-methoxy-amide], the inhibition at 10 µM at HIV-integrase worked out at 99%.

Turning to `CON(Cc1ccc(F)cc1)C(=O)/C=C(\O)C(=O)NS(=O)(=O)c1c(C)noc1C` [Example 8, 4-(3,5-Dimethyl-isoxazole-4-sulfonylamino)-3-hydroxy-4-oxo-but-2-enoic acid (4-fluoro-benzyl)-methoxy-amide], the inhibition at 10 µM at HIV-integrase turned out to be 99%.

With `CON(Cc1ccc(F)cc1)C(=O)/C=C(\O)C(=O)NS(=O)(=O)c1cccc(C)n1` [Example 9, 3-Hydroxy-4-(6-methyl-pyridine-2-sulfonylamino)-4-oxo-but-2-enoic acid (4-fluoro-benzyl)-methoxy-amide], the inhibition at 10 µM at HIV-integrase was determined as 94%.

Take `CON(Cc1ccc(F)cc1)C(=O)/C=C(\O)C(=O)NS(=O)(=O)c1ccc(Cl)s1` [Example 10, 4-(5-Chloro-thiophene-2-sulfonylamino)-3-hydroxy-4-oxo-but-2-enoic acid (4-fluoro-benzyl)-methoxy-amide]: the inhibition at 10 µM at HIV-integrase worked out at 95%.

In the case of `CON(Cc1ccc(F)cc1)C(=O)/C=C(\O)C(=O)NS(=O)(=O)c1ccc(NC(C)=O)cc1` [Example 11, 4-(4-Acetylamino-benzenesulfonylamino)-3-hydroxy-4-oxo-but-2-enoic acid (4-fluoro-benzyl)-methoxy-amide], the inhibition at 10 µM on HIV-integrase was found to be 99%.

In the case of `CCOc1ccc2nc(S(=O)(=O)NC(=O)C(O)=CC(=O)N(Cc3ccc(F)cc3)OC)sc2c1` [Example 12, 4-(6-Ethoxy-benzothiazole-2-sulfonylamino)-3-hydroxy-4-oxo-but-2-enoic acid (4-fluoro-benzyl)-methoxy-amide], at HIV-integrase, the inhibition at 10 µM was 99%.

As for `CON(Cc1ccc(F)cc1)C(=O)/C=C(\O)C(=O)NS(=O)(=O)c1sc(C)nc1C` [Example 13, 4-(2,4-Dimethyl-thiazole-5-sulfonylamino)-3-hydroxy-4-oxo-but-2-enoic acid (4-fluoro-benzyl)-methoxy-amide], at HIV-integrase, the inhibition at 10 µM turned out to be 98%.

Turning to `CON(Cc1ccc(F)cc1)C(=O)/C=C(\O)C(=O)NS(=O)(=O)c1cn(C)cn1` [Example 14, 3-Hydroxy-4-(1-methyl-1H-imidazole-4-sulfonylamino)-4-oxo-but-2-enoic acid (4-fluoro-benzyl)-methoxy-amide], the inhibition at 10 µM at HIV-integrase was found to be 93%.

For `CCN1CCCC1CNC(=O)c1cc(S(=O)(=O)NC(=O)/C(O)=C/C(=O)N(Cc2ccc(F)cc2)OC)ccc1OC` (stereo not shown) [Example 15, N-(1-Ethyl-pyrrolidin-2-ylmethyl)-5-[3-[(4-fluoro-benzyl)-methoxy-carbamoyl]-2-hydroxy-acryloylsulfamoyl]-2-methoxy-benzamide], on HIV-integrase, the inhibition at 10 µM amounted to 93%.

With `CON(Cc1ccc(F)cc1)C(=O)/C=C(\O)C(=O)NS(=O)(=O)C1CCS(=O)(=O)C1` (stereo not shown) [Example 16, 4-(1,1-Dioxo-tetrahydro-1×6-thiophene-3-sulfonylamino)-3-hydroxy-4-oxo-but-2-enoic acid (4-fluoro-benzyl)-methoxy-amide], at HIV-integrase, the inhibition at 10 µM was 98%.

Regarding `CON(Cc1ccc(F)cc1)C(=O)/C=C(\O)C(=O)NS(=O)(=O)c1ccc(-c2cc(C(F)(F)F)n(C)n2)s1` [Example 17, 3-Hydroxy-4-[5-(1-methyl-5-trifluoromethyl-1H-pyrazol-3-yl)-thiophene-2-sulfonylamino]-4-oxo-but-2-enoic acid (4-fluoro-benzyl)-methoxy-amide], the inhibition at 10 µM at HIV-integrase turned out to be 99%.

`CCCC1(S(=O)(=O)NC(=O)/C(O)=C/C(=O)N(Cc2ccc(F)cc2)OC)CC1` [Example 18, 3-Hydroxy-4-oxo-4-(1-propyl-cyclopropanesulfonylamino)-but-2-enoic acid (4-fluoro-benzyl)-methoxy-amide]: the inhibition at 10 µM at HIV-integrase amounted to 99%.

In the case of `CON(Cc1ccc(F)cc1)C(=O)/C=C(\O)C(=O)NS(=O)(=O)C1(CC2CC2)CC1` [Example 19, 4-(1-Cyclopropylmethyl-cyclopropanesulfonylamino)-3-hydroxy-4-oxo-but-2-enoic acid (4-fluoro-benzyl)-methoxy-amide], the inhibition at 10 µM on HIV-integrase amounted to 99%.

On to `CON(Cc1ccc(F)cc1)C(=O)/C=C(\O)C(=O)NS(=O)(=O)C1(Cc2ccccc2)CC1` [Example 20, 4-(1-Benzyl-cyclopropanesulfonylamino)-3-hydroxy-4-oxo-but-2-enoic acid (4-fluoro-benzyl)-methoxy-amide], for which, on HIV-integrase, the inhibition at 10 µM amounted to 99%.

In the case of `CON(Cc1ccc(C(=O)O)cc1)C(=O)/C=C(\O)C(=O)NS(C)(=O)=O` [Example 21, 4-{[(3-Hydroxy-4-methanesulfonylamino-4-oxo-but-2-enoyl)-methoxy-amino]-methyl}-benzoic acid], the melting point was 119 to 124 °C. On HIV-integrase, the inhibition at 10 µM stood at 30%.

For the molecule `CON(Cc1ccc(F)c(C)c1)C(=O)/C=C(\O)C(=O)NS(C)(=O)=O` [Example 22, 3-Hydroxy-4-methanesulfonylamino-4-oxo-but-2-enoic acid (4-fluoro-3-methyl-benzyl)-methoxy-amide], the melting point was 138 °C (dec.). Further, the inhibition at 10 µM at HIV-integrase amounted to 99%.

For `CON(Cc1ccccc1OC(C)C)C(=O)/C=C(\O)C(=O)NS(C)(=O)=O` [Example 23, 3-Hydroxy-4-methanesulfonylamino-4-oxo-but-2-enoic acid (2-isopropoxy-benzyl)-methoxy-amide], the inhibition at 10 µM at HIV-integrase was found to be 99%.

`CON(Cc1ccc(C(=O)OC(C)(C)C)cc1)C(=O)/C=C(\O)C(=O)NS(C)(=O)=O` [Example 24, 4-{[(3-Hydroxy-4-methanesulfonylamino-4-oxo-but-2-enoyl)-methoxy-amino]-methyl}-benzoic acid tert-butyl ester]: the inhibition at 10 µM on HIV-integrase was determined as 15%.

As to `CON(Cc1ccc(C)c(F)c1)C(=O)/C=C(\O)C(=O)NS(C)(=O)=O` [Example 25, 3-Hydroxy-4-methanesulfonylamino-4-oxo-but-2-enoic acid (3-fluoro-4-methyl-benzyl)-methoxy-amide], at HIV-integrase, the inhibition at 10 µM came out at 99%.

For `CON(C(=O)/C=C(\O)C(=O)NS(C)(=O)=O)C(C)c1ccc(F)cc1` (stereo not shown) [Example 26, 3-Hydroxy-4-methanesulfonylamino-4-oxo-but-2-enoic acid[1-(4-fluoro-phenyl)-ethyl]-methoxy-amide], the inhibition at 10 µM on HIV-integrase was found to be 99%.

For the molecule `CON(C(=O)/C=C(\O)C(=O)NS(C)(=O)=O)C(c1ccc(F)cc1)c1ccc(F)cc1` [Example 27, 3-Hydroxy-4-methanesulfonylamino-4-oxo-but-2-enoic acid [bis-(4-fluoro-phenyl)-methyl]-methoxy-amide], on HIV-integrase, the inhibition at 10 µM is 60%.

In the case of `CON(Cc1ccc(F)cc1Cl)C(=O)/C=C(\O)C(=O)NS(C)(=O)=O` [Example 28, 3-Hydroxy-4-methanesulfonylamino-4-oxo-but-2-enoic acid (2-chloro-4-fluoro-benzyl)-methoxy-amide], the melting point is 144 °C (dec.). At HIV-integrase, the inhibition at 10 µM was found to be 99%.

On to `CN(C(=O)/C=C(\O)C(=O)NS(C)(=O)=O)C(Cc1ccc(Cl)cc1)Cc1ccc(Cl)cc1` [Example 29, 3-Hydroxy-4-methanesulfonylamino-4-oxo-but-2-enoic acid [1-(4-chloro-benzyl)-2-(4-chloro-phenyl)-ethyl]-methyl-amide], for which the inhibition at 10 µM at HIV-integrase was 86%.

As to `CON(CCCc1ccc(F)cc1)C(=O)/C=C(\O)C(=O)NS(C)(=O)=O` [Example 30, 3-Hydroxy-4-methanesulfonylamino-4-oxo-but-2-enoic acid [3-(4-fluoro-phenyl)-propyl]-methoxy-amide], the inhibition at 10 µM on HIV-integrase is 98%.
